What is called IC50 is the concentration needed to halve the response being measured. As usually defined, the inhibition is the drop in the measured response relative to a control, in per cent.

Here are results for 25 molecules from US6583299B1, “α-amino-β-sulfonyl hydroxamic acid compounds” (priority 1999, dated 2003).

Values joined by “and” are separate entries in the source; they are usually repeats but may differ in a detail not shown here. Identical values can stand only once. A value given as a limit tells only on which side of the number the result lay.

In one data set the target is T1, MMP-13 (Homo sapiens, UniProt P45452).
T1 construct: made in house; host or cells: baculovirus / insect cells
Nature of the data set: In vitro metalloprotease inhibition, fluorogenic MCA peptide substrate. It counts as biochemical. The settings on record: recombinant human enzyme, APMA-activated, room temperature, pH 7.5; read-out: MMP-13 IC50.

Another data set addresses T2, MMP-1 (Homo sapiens, UniProt P03956).
T2 construct: host or cells: transfected HT-1080 cells
T2 sequence (P03956 100-469): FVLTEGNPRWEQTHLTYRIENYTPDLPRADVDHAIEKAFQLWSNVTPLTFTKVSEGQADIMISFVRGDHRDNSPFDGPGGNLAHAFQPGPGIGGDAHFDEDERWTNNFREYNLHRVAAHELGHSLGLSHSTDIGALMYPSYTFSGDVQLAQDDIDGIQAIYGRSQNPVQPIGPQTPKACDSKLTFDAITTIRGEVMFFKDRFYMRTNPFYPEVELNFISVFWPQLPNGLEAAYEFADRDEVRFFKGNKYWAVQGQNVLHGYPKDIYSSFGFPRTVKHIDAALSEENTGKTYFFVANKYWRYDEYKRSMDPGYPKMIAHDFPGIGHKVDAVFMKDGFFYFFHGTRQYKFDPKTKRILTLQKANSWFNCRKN
The data set is described as above. It counts as biochemical. The settings on record: recombinant human enzyme, APMA-activated, room temperature, pH 7.5.

Data set [1] relates to human moncytic line U-937. Nature of the data set: Tumor necrosis factor assay: PMA-stimulated TNF release, TNFα ELISA. It counts as cell-based. The settings on record: U-937 cells; for inhibition at 10 µM: compound at 10 μM, read-out: Per Cent Inhibition of TNF? Release [average]. The procedure:
The cells used in the assay are the human moncytic line U-937 (ATCC CRL-1593). The cells are grown RPMI w/10% FCS and PSG supplement (R-10) and are not permitted to overgrow. The assay is carried out as follows:
1. Count, then harvest cells by centrifugation. Resuspend the pellet in R-10 supplement to a concentration of 1.540×10^6 cells/mL.
2. Add test compound in 65 μL R-10 to the appropriate wells of a 96-well flat bottom tissue culture plate. The initial dilution from a DMSO stock (100 mM compound) provides a 400 μM solution, from which five additional three-fold serial dilutions are made.
3. The counted, washed and resuspended cells (200,000 cells/well) in 130 μL are added to the wells.
4. Incubation is for 45 minutes to one hour at 37° C. in 5% CO2 in a water saturated container.
5. R-10 (65 μL)containing 160 ng/mL PMA (Sigma) is added to each well. 6. The test system is incubated at 37° C. in 5% CO2 overnight (18-20 hours) under 100% humidity.
7. Supernatant, 150 μL, is carefully removed from each well for use in the ELISA assay.
Coat Immulon® 2 plates with 0.1 mL/well of 1 ug/mL Genzyme mAb in 0.1 M NaHCO3 pH 8.0 buffer overnight (about 18-20 hours) at 4° C., wrapped tightly in Saran® wrap.
Wash wells thoroughly 4× with wash buffer and completely remove all wash buffer. Add 0.1 mL/well of either samples or rhTNFα standards. Dilute samples if necessary in appropriate diluent (e.g. tissue culture medium). Dilute standard in same diluent. Standards and samples should be in triplicates.
Wash plates as above. Add 0.1 mL/well of 1:200 dilution of Genzyme rabbit anti-hTNFα.
Repeat wash. Add 0.1 mL/well of 1 μg/mL Jackson goat anti-rabbit IgG (H+L)-peroxidase.
Repeat wash. Add 0.1 mL/well of peroxide-ABTS solution.
A general note: ELISA stands for enzyme-linked immunosorbent assay.

A further data set concerns the target T3, MMP-2 (Homo sapiens, UniProt P08253).
T3 sequence (P08253 110-660): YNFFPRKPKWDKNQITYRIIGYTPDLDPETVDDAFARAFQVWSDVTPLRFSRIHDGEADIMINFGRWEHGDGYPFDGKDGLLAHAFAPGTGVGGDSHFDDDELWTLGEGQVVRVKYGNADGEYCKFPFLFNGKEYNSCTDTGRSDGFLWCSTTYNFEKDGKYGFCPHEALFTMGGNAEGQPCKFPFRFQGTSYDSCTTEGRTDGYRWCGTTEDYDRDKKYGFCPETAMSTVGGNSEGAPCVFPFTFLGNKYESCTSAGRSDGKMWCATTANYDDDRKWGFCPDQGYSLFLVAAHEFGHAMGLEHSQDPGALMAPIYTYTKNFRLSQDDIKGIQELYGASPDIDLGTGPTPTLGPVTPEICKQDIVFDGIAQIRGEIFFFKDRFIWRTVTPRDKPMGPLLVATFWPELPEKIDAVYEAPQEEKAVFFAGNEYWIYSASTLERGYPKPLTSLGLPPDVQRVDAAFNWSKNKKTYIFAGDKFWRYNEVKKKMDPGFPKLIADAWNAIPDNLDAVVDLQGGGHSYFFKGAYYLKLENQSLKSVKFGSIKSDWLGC
Nature of the data set: In vitro metalloprotease inhibition, fluorogenic MCA peptide substrate. It counts as biochemical. The settings on record: room temperature, pH 7.5.

Data set [2] deals with solid tumor cancers (colorectal, pancreatic, ovarian, prostate). The settings on record: cited from earlier work.

Experimental for MMP-13: Briefly, 4-aminophenylmercuric acetate (APMA) or trypsin-activated MMPs were incubated with various concentrations of the inhibitor compound at room temperature for 5 minutes.
The expressed enzyme was purified first over a heparin agarose column and then over a chelating zinc chloride column. The proenzyme was activated by APMA for use in the assay.
The enzyme substrate is a methoxycoumarin-containing polypeptide having the following sequence:
MCA-ProLeuGlyLeuDpaAlaArgNH2, wherein MCA is methoxycoumarin and Dpa is 3-(2,4-dinitrophenyl)-L-2,3-diaminopropionyl alanine.
The assayed inhibitor compound in DMSO/buffer solution was compared to an equal amount of DMSO/buffer with no inhibitor as control using Microfluor™ White Plates (Dynatech). The inhibitor or control solution was maintained in the plate for 10 minutes and the substrate was added to provide a final concentration of 4 μM.
Inhibition was measured as a reduction in fluorescent intensity as a function of inhibitor concentration, using a Perkin Elmer L550 plate reader. The IC50 values were calculated from those values.
Experimental for MMP-2: Briefly, 4-aminophenylmercuric acetate (APMA) or trypsin-activated MMPs were incubated with various concentrations of the inhibitor compound at room temperature for 5 minutes. […] The assayed inhibitor compound in DMSO/buffer solution was compared to an equal amount of DMSO/buffer with no inhibitor as control using MicrofluorTM White Plates (Dynatech). The inhibitor or control solution was maintained in the plate for 10 minutes and the substrate was added to provide a final concentration of 4 μM. […] Inhibition was measured as a reduction in fluorescent intensity as a function of inhibitor concentration, using a Perkin Elmer [MUT] plate reader. The IC50 values were calculated from those values.

For the molecule `COc1ccc(S(=O)(=O)CC(NC(=O)c2ccccc2)C(=O)NO)cc1` (stereo not shown) [Example 3, N-Hydroxy-3-[(4-methoxyphenyl)sulfonyl]-2-[(phenylcarbonyl)amino]propanamide], the IC50 at MMP-13 stood at 25 nM; on MMP-1 it was 2000 nM. The inhibition at 10 µM in data set [1] came to 3.72%.
For the molecule `COc1ccc(S(=O)(=O)CC(NC(=O)[C@@H](C)NC(=O)OCc2ccccc2)C(=O)NO)cc1` (stereo partly shown) [Example 25], the IC50 on MMP-13 was determined as 1 nM; at MMP-1 it was 1 nM; in data set [1], 14000 nM.
As for `COc1ccc(S(=O)(=O)CC(NC(=O)CCC(=O)OCc2ccccc2)C(=O)NO)cc1` (stereo not shown) [Example 7], the IC50 at MMP-13 is 2.5 nM; at MMP-1, 200 nM; in data set [1] it was above 50000 nM.
`CCN(CC)c1ccc(C(=O)N[C@@H](CS(=O)(=O)c2ccc(Oc3ccccc3)cc2)C(=O)NO)cc1` [Example 53]: the values for the IC50 at MMP-2, on MMP-13 and at MMP-1 were 0.3 nM, 2.1 nM and 8100 nM, respectively.
For the molecule `COc1cccc(OC)c1C(=O)N[C@@H](CS(=O)(=O)c1ccc(Oc2ccccc2)cc1)C(=O)NO` [Example 37], the IC50 at MMP-2 was found to be 0.25 nM; on MMP-13, 0.4 nM; at MMP-1, 350 nM.
As to `CNC(CS(=O)(=O)c1ccc(NC(=O)c2ccccc2)cc1)C(=O)NO` (stereo not shown) [Example 64], the results for the IC50 at MMP-2, on MMP-13 and at MMP-1 were 0.4 nM, 8.1 nM and 7000 nM, respectively.
`CC(=O)N(C)[C@@H](CS(=O)(=O)c1ccc(Oc2ccccc2)cc1)C(=O)NO` [Example 43]: the IC50 was found to be 0.2 nM against MMP-2, 0.2 nM at MMP-13 and 90 nM on MMP-1.
For `CN[C@@H](CS(=O)(=O)c1ccc(Oc2ccccc2)cc1)C(=O)NO` [Example 41], the IC50 on MMP-2 is 0.3 nM and 0.5 nM; on MMP-13, 0.4 nM and 1 nM; at MMP-1, 440 nM and 670 nM.
Regarding `O=C(N[C@@H](CS(=O)(=O)c1ccc(Oc2ccccc2)cc1)C(=O)NO)c1ccnc2ccccc12` [Example 50], the IC50 amounted to 0.3 nM on MMP-2, 0.3 nM on MMP-13 and 316 nM at MMP-1.
On to `COc1ccc(S(=O)(=O)CC(NC(C)=O)C(=O)NO)cc1OC` (stereo not shown) [Example 23], for which the IC50 on MMP-13 is 1500 nM; at MMP-1, above 10000 nM; in data set [1], above 50000 nM.
As to `COc1ccc(S(=O)(=O)CC(N)C(=O)NO)cc1` (stereo not shown) [Example 22], the IC50 was 15 nM at MMP-13, 250 nM on MMP-1 and above 29000 nM in data set [1].
In the case of `COc1ccc(S(=O)(=O)CC(NC(=O)CCC(=O)O)C(=O)NO)cc1` (stereo not shown) [Example 8], the IC50 at MMP-13 is 60 nM; on MMP-1 it was 600 nM; in data set [1], above 50000 nM.
`COc1ccc(CC(=O)NC(CS(=O)(=O)c2ccc(Sc3ccccc3)cc2)C(=O)NO)c(OC)c1` (stereo not shown) [Example 31]: the IC50 against MMP-2 stood at 0.8 nM; at MMP-13, 0.4 nM; at MMP-1, 3000 nM.
As to `O=C(NO)[C@H](CS(=O)(=O)c1ccc(Oc2ccccc2)cc1)N1CCCCC1` [Example 54], the results for the IC50 against MMP-2, at MMP-13 and at MMP-1 were 0.2 nM, 0.3 nM and 345 nM, respectively.
Take `CC(=O)NC(CS(=O)(=O)c1ccc(Br)cc1)C(=O)NO` (stereo not shown) [Example 5, N-Hydroxy-3-[(4-bromophenyl)sulfonyl]-2-[(methylcarbonyl)amino]propanamide]: the IC50 on MMP-13 is 200 nM; on MMP-1 it was 100 nM; in data set [1], above 50000 nM. The inhibition at 10 µM in data set [1] was -10.8%.
On to `CC(C)(C)OC(=O)N[C@@H](CS(=O)(=O)c1ccc(Oc2ccccc2)cc1)C(=O)NO` [Example 33], for which the IC50 was 0.2 nM against MMP-2, 0.3 nM at MMP-13 and 500 nM on MMP-1.
Take `N[C@H](CNO)CS(=O)(=O)c1ccc(Oc2ccccc2)cc1` [Example 60]: the IC50 is 0.3 nM at MMP-2, 0.4 nM at MMP-13 and 440 nM at MMP-1.
For the molecule `CC(=O)N1CCC(C(=O)NC(CS(=O)(=O)c2ccc(Oc3ccccc3)cc2)C(=O)NO)CC1` (stereo not shown) [Example 59], the IC50 against MMP-2 came to 0.4 nM; on MMP-13, 0.8 nM; at MMP-1, 580 nM.
In the case of `CCCCC(=O)NC(CS(=O)(=O)c1ccc(OC)cc1)C(=O)NO` (stereo not shown) [Example 4, N-Hydroxy-3-[(4-methoxyphenyl)sulfonyl]-2-[(butylcarbonyl)amino]propanamide], the IC50 was 3.5 nM on MMP-13, 400 nM at MMP-1 and above 50000 nM in data set [1]. Also, in data set [1], the inhibition at 10 µM was -3.8%.
As for `CC(=O)NC(CS(=O)(=O)c1ccc(Sc2ccccc2)cc1)C(=O)NO` (stereo not shown) [Example 15b, 2-(Acetylamino)-N-hydroxy-3-[[4-(phenylthio)phenyl]sulfonyl]propanamide], the IC50 against MMP-2 is 2.2 nM; at MMP-13 it was 5.9 nM; at MMP-1, above 10000 nM.
Take `CNC(=O)[C@@H](NC(=O)[C@H](CC(C)C)[C@H](O)C(=O)NO)C(C)(C)C` [marimastat]: in data set [2] (clinical trials, Phase I/II), the “Most common drug-related toxicity” value is “musculoskeletal pain and stiffness”. Also, in data set [2] (patients with advanced, rapidly progressive, treatment-refractory solid tumor cancers), the “Effect on cancer-specific antigens used as surrogate markers for biological activity” value is given as “dose-related reduction in the rise of cancer-specific antigens”.
For the molecule `CN(C(=O)Cc1ccncc1)[C@H](CS(=O)(=O)c1ccc(Oc2ccccc2)cc1)C(=O)NO` [Example 47], the IC50 on MMP-2 was found to be 0.6 nM; on MMP-13, 45.3 nM; at MMP-1, 258 nM.
The like results for `O=C(N[C@@H](CS(=O)(=O)c1ccc(Oc2ccccc2)cc1)C(=O)NO)c1ccncc1` [Example 46] were, in that order, 0.3 nM, 1.1 nM and 1310 nM.
Turning to `CN(C(=O)OC(C)(C)C)[C@H](CS(=O)(=O)c1ccc(Oc2ccccc2)cc1)C(=O)NO` [Example 40], the figures for the IC50 on MMP-2, at MMP-13 and at MMP-1 were 0.3 nM, 0.3 nM and 1600 nM, respectively.
With `COc1ccc(S(=O)(=O)CC(NC(C)=O)C(=O)NO)cc1` (stereo not shown) [Example 24], the IC50 is 650 nM on MMP-13, 5200 nM on MMP-1 and above 50000 nM in data set [1].
